Reference: BindingDB's records for doi:10.1016/j.vascn.2014.07.002 (University of Oxford, 2014)

How the values were obtained:
[1] = biological target: Potassium voltage-gated channel subfamily H member 2 (Homo sapiens, UniProt Q12809); test: Inhibition of rapid delayed inward rectifying potassium current (IKr) measured using manual patch clamp assay
[2] = Inhibition of rapid delayed inward rectifying potassium current (IKr) measured using manual patch clamp assay

Sequence of Potassium voltage-gated channel subfamily H member 2 (Q12809 whole entry): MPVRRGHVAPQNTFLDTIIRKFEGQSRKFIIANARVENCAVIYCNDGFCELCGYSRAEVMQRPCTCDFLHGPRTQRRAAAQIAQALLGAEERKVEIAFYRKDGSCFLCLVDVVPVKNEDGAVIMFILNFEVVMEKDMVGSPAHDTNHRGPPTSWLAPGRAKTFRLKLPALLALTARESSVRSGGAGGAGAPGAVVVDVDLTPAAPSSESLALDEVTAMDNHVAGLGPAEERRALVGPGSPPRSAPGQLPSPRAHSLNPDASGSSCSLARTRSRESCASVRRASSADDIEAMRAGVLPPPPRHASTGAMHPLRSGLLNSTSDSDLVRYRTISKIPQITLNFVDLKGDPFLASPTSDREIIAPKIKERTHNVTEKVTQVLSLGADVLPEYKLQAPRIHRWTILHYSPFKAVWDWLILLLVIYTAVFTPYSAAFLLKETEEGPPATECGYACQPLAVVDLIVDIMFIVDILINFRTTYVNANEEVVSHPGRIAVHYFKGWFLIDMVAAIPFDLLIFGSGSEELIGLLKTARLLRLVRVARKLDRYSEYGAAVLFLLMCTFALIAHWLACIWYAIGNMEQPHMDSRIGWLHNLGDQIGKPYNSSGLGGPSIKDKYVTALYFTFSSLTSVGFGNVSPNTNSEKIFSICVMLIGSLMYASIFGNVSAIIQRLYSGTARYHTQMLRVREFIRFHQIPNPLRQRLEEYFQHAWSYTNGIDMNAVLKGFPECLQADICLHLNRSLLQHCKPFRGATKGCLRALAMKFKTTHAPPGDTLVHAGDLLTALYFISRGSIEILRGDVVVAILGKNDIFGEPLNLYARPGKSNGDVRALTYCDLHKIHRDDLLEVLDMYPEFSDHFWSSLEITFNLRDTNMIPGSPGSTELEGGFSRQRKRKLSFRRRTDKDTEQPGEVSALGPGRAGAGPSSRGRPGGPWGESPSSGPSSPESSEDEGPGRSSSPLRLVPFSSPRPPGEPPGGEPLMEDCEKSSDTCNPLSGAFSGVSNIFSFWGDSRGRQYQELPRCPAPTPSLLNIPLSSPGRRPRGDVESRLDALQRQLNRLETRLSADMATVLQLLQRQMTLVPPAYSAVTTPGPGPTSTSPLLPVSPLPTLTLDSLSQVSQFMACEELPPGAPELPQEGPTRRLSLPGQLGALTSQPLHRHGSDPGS

| Compound | IC50 [1] [µM] | IC50 [2] [µM] |
| --- | --- | --- |
| O=C(O)c1ccc(-n2nc(-c3ccccc3O)nc2-c2ccccc2O)cc1 [CHEBI:49005] | 3980 | – |
| C[C@H]1CN(C[C@H](Cc2ccccc2)C(=O)NCC(=O)O)CC[C@@]1(C)c1cccc(O)c1 [ADL 8-2698] | – | 794 |
